Experimental data: ChEMBL document CHEMBL2074558, “rOCT2 is a basolateral potential-driven carrier, not an organic cation/proton exchanger” (Am J Physiol, 1999)
Values belong to the molecule of their own block, whether it stands above or below them.

Experiments:
Type in all cases: functional, cell-based
[1] = biological target: T1, Solute carrier family 22 member 2 (Rattus norvegicus, UniProt Q9R0W2); test: TP_TRANSPORTER: inhibition of TEA uptake (apical to cell)(TEA: 100 uM, NMN: 5000 uM) in OCT2-expressing MDCK cells; details: dog
T1 sequence (Q9R0W2 whole entry): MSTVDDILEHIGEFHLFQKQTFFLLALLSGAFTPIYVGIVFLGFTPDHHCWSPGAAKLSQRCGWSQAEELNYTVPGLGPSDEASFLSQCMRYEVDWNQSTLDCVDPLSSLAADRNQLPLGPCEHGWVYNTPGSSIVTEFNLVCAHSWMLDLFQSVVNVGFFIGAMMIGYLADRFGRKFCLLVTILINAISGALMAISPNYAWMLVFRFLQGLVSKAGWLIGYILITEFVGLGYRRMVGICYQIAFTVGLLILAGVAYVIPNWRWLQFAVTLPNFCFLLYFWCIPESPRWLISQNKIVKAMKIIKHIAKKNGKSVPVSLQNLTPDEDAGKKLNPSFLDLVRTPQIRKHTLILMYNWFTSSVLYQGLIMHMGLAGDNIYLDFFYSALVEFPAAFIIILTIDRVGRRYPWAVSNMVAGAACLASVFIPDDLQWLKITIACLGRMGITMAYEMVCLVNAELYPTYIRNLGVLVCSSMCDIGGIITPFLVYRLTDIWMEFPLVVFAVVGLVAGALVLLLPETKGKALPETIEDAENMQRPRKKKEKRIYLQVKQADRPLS

[2] = biological target: T1, Solute carrier family 22 member 2; test: TP_TRANSPORTER: TEA uptake (TEA: 200 uM, Quinine: 200 uM) in Xenopus laevis oocytes; details: oocyte
[3] = biological target: T1, Solute carrier family 22 member 2; test: TP_TRANSPORTER: inhibition of TEA uptake (apical to cell)(TEA: 100 uM, Quinine: 200 uM) in OCT2-expressing MDCK cells; details: dog
[4] = biological target: T1, Solute carrier family 22 member 2; test: TP_TRANSPORTER: TEA uptake (TEA: 200 uM, Quinacrine: 200 uM) in Xenopus laevis oocytes; details: oocyte
[5] = biological target: T1, Solute carrier family 22 member 2; test: TP_TRANSPORTER: inhibition of TEA uptake (apical to cell)(TEA: 100 uM, Quinacrine: 200 uM) in OCT2-expressing MDCK cells; details: dog

Activity [1]: inhibitor [+]
SMILES: CNC(=O)c1cccnc1 [NICOTINYL METHYLAMIDE]

Activity [2]: inhibitor [+] | Activity [3]: inhibitor [+]
SMILES: C=C[C@H]1C[N@@]2CC[C@H]1C[C@H]2[C@H](O)c1ccnc2ccc(OC)cc12 [QUININE]

Activity [4]: inhibitor [+] | Activity [5]: inhibitor [+]
SMILES: CCN(CC)CCCC(C)Nc1c2ccc(Cl)cc2nc2ccc(OC)cc12 (stereo not given) [QUINACRINE]
